According to the NIST ThermoML archive (doi:10.1016/j.jct.2007.05.004):

What was measured:
[1] = 101 kPa, Liquid
[2] = xn = mol fraction of the nth substance listed; conditions: 101 kPa, Liquid

CCOC(C)=O [ethyl acetate]
[1]
Conditions | mass density [kg/m3] | viscosity [mPa·s]
293.15 K | 900.52 | 0.452
298.15 K | 894.43 | 0.426
303.15 K | 888.3 | 0.403

CCOC(C)=O [ethyl acetate] + CCO
[2]
Conditions | mass density, 293.15 K [kg/m3] | mass density, 298.15 K [kg/m3] | mass density, 303.15 K [kg/m3] | viscosity, 293.15 K [mPa·s] | viscosity, 298.15 K [mPa·s] | viscosity, 303.15 K [mPa·s]
x2 = 0 | 900.52 | 894.43 | 888.3 | 0.452 | 0.426 | 0.403
x2 = 0.0491 | 896.91 | 890.86 | 884.76 | 0.45 | 0.425 | 0.402
x2 = 0.099 | 893.14 | 887.11 | 881.03 | 0.452 | 0.429 | 0.406
x2 = 0.1958 | 885.48 | 879.55 | 873.57 | 0.463 | 0.435 | 0.412
x2 = 0.2961 | 877.07 | 871.22 | 865.34 | 0.476 | 0.448 | 0.426
x2 = 0.3947 | 868.09 | 862.38 | 856.63 | 0.497 | 0.467 | 0.439
x2 = 0.4948 | 858.16 | 852.62 | 847.03 | 0.542 | 0.502 | 0.467
x2 = 0.5995 | 846.81 | 841.47 | 836.07 | 0.581 | 0.543 | 0.508
x2 = 0.7004 | 834.71 | 829.57 | 824.39 | 0.66 | 0.614 | 0.575
x2 = 0.8004 | 821.45 | 816.55 | 811.61 | 0.758 | 0.701 | 0.65
x2 = 0.9003 | 806.45 | 801.82 | 797.15 | 0.919 | 0.843 | 0.777
x2 = 0.9505 | 798.36 | 793.91 | 789.42 | 1.048 | 0.958 | 0.869

O [water] + CCO
[2], x1 = 1
Conditions | viscosity [mPa·s]
293.15 K | 1.002
298.15 K | 0.89
303.15 K | 0.797

CCO [ethanol] + CCOC(C)=O
[2], x1 = 1
Conditions | mass density [kg/m3] | viscosity [mPa·s]
293.15 K | 789.75 | 1.187
298.15 K | 785.46 | 1.082
303.15 K | 781.15 | 0.987

COC(C)=O [methyl ethanoate]
[1]
Conditions | mass density [kg/m3] | viscosity [mPa·s]
293.15 K | 933.56 | 0.386
298.15 K | 926.98 | 0.367
303.15 K | 920.34 | 0.348

O [water] + CO
[2], x1 = 1
Conditions | viscosity [mPa·s]
293.15 K | 1.003
298.15 K | 0.89
303.15 K | 0.797

CCO [ethanol]
[1]
Conditions | mass density [kg/m3] | viscosity [mPa·s]
293.15 K | 789.75 | 1.187
298.15 K | 785.46 | 1.082
303.15 K | 781.15 | 0.987

COC(C)=O [methyl ethanoate] + CCO
[2]
Conditions | mass density, 293.15 K [kg/m3] | mass density, 298.15 K [kg/m3] | mass density, 303.15 K [kg/m3] | viscosity, 293.15 K [mPa·s] | viscosity, 298.15 K [mPa·s] | viscosity, 303.15 K [mPa·s]
x2 = 0 | 933.56 | 926.98 | 920.34 | 0.386 | 0.367 | 0.348
x2 = 0.0493 | 927.83 | 921.31 | 914.73 | 0.383 | 0.363 | 0.345
x2 = 0.0987 | 922 | 915.54 | 909.02 | 0.389 | 0.365 | 0.347
x2 = 0.1998 | 909.85 | 903.54 | 897.15 | 0.398 | 0.377 | 0.359
x2 = 0.3006 | 897.16 | 891 | 884.79 | 0.419 | 0.395 | 0.374
x2 = 0.3973 | 884.52 | 878.56 | 872.54 | 0.444 | 0.418 | 0.394
x2 = 0.4863 | 872.35 | 866.59 | 860.77 | 0.477 | 0.449 | 0.422
x2 = 0.6031 | 855.48 | 849.99 | 844.45 | 0.54 | 0.505 | 0.473
x2 = 0.6972 | 841.15 | 835.91 | 830.62 | 0.615 | 0.572 | 0.537
x2 = 0.7986 | 824.84 | 819.89 | 814.9 | 0.735 | 0.684 | 0.64
x2 = 0.9009 | 807.47 | 802.85 | 798.18 | 0.903 | 0.838 | 0.768
x2 = 0.951 | 798.76 | 794.3 | 789.81 | 1.032 | 0.945 | 0.868

CCO [ethanol] + COC(C)=O
[2], x1 = 1
Conditions | mass density [kg/m3] | viscosity [mPa·s]
293.15 K | 789.75 | 1.187
298.15 K | 785.46 | 1.082
303.15 K | 781.15 | 0.987

CO [methanol] + COC(C)=O
[2], x1 = 1
Conditions | mass density [kg/m3] | viscosity [mPa·s]
293.15 K | 791.9 | 0.585
298.15 K | 787.2 | 0.545
303.15 K | 782.48 | 0.508

CCOC(C)=O [ethyl acetate] + CO
[2]
Conditions | mass density, 293.15 K [kg/m3] | mass density, 298.15 K [kg/m3] | mass density, 303.15 K [kg/m3] | viscosity, 293.15 K [mPa·s] | viscosity, 298.15 K [mPa·s] | viscosity, 303.15 K [mPa·s]
x2 = 0 | 900.52 | 894.43 | 888.3 | 0.452 | 0.426 | 0.403
x2 = 0.0474 | 898.51 | 892.43 | 886.3 | 0.447 | 0.422 | 0.4
x2 = 0.097 | 896.18 | 890.12 | 884.01 | 0.443 | 0.418 | 0.396
x2 = 0.1956 | 891.18 | 885.16 | 879.09 | 0.442 | 0.417 | 0.396
x2 = 0.2999 | 884.93 | 878.99 | 872.98 | 0.442 | 0.419 | 0.398
x2 = 0.3963 | 878.26 | 872.38 | 866.46 | 0.447 | 0.421 | 0.398
x2 = 0.4962 | 870.14 | 864.36 | 858.55 | 0.453 | 0.427 | 0.403
x2 = 0.5963 | 860.45 | 854.82 | 849.15 | 0.463 | 0.435 | 0.41
x2 = 0.6998 | 848.26 | 842.81 | 837.3 | 0.481 | 0.451 | 0.425
x2 = 0.7992 | 833.88 | 828.62 | 823.31 | 0.504 | 0.472 | 0.443
x2 = 0.9005 | 815.52 | 810.5 | 805.45 | 0.536 | 0.501 | 0.469

CO [methanol]
[1]
Conditions | mass density [kg/m3] | viscosity [mPa·s]
293.15 K | 791.9 | 0.585
298.15 K | 787.2 | 0.545
303.15 K | 782.48 | 0.508
